Assay results as given in US10336691B2, “Pesticidally active oxime and hydrazone derivatives” (Syngenta Participations AG, priority 2015, dated 2019).
Read-outs that look alike come from different tables or passages of the source.

Legend:
Assay type in all cases: in vivo
[1] = test system: Plutella xylostella; assay: Plutella xylostella (diamond back moth) artificial diet test, L2 larvae; details: 120 h, read-out: effect in at least one of the two categories (mortality or growth inhibition); for percent effect (mortality or growth inhibition) at 200 ppm: application rate of 200 ppm, 5 days after infestation, in comparison to untreated samples
Procedure: Plutella xylostella (Diamond Back Moth)
(§1) 24-well microtiter plates with artificial diet were treated with aqueous test solutions prepared from 10,000 ppm DMSO stock solutions by pipetting. After drying, the plates were infested with L2 larvae (10 to 15 per well). The samples were assessed for mortality and growth inhibition in comparison to untreated samples 5 days after infestation.

[2] = test system: Diabrotica balteata; assay: Diabrotica balteata (corn root worm) maize sprout spray test, L2 larvae; details: 96 h, read-out: effect in at least one of the two categories (mortality or growth inhibition); for percent effect (mortality or growth inhibition) at 200 ppm: application rate of 200 ppm, 4 days after infestation, in comparison to untreated samples
Procedure: Diabrotica balteata (Corn Root Worm)
as §1, with “Maize sprouts, placed on an agar layer in 24-well” for “24-well”, “plates” for “plates with artificial diet”, “spraying.” for “pipetting.”, “(6” for “(10”, “10” for “15”, “4” for “5”

[3] = test system: Spodoptera littoralis; assay: Spodoptera littoralis (Egyptian cotton leaf worm) cotton leaf disc spray test, L1 larvae; details: foliar, 72 h, read-out: control (at least one of mortality, anti-feedant effect, and growth inhibition)
Procedure: Spodoptera littoralis (Egyptian Cotton Leaf Worm)
Cotton leaf discs were placed on agar in 24-well microtiter plates and sprayed with aqueous test solutions prepared from 10,000 ppm DMSO stock solutions. After drying, the leaf discs were infested with five L1 larvae. The samples were assessed for mortality, anti-feedant effect, and growth inhibition in comparison to untreated samples 3 days after infestation. Control of Spodoptera littoralis by a test sample is when at least one of mortality, anti-feedant effect, and growth inhibition is higher than the untreated sample.

[4] = application rate of 200 ppm, 3 days after infestation, in comparison to untreated samples

Row | Compound | percent effect (mortality or growth inhibition) at 200 ppm [1] [%] | percent effect (mortality or growth inhibition) at 200 ppm [2] [%] | mortality at 200 ppm [3, 4] [%] | also measured
1 | C/C(=N\Nc1ccc(/C=N/NC(=S)Nc2c(C)cccc2C)cc1)c1cccc(OC(F)(F)F)c1 [Compound 16, 1-(2,6-dimethylphenyl)-3-[[4-[2-[1-[3-(trifluoromethoxy)phenyl]ethylidene] hydrazino]phenyl]methylene-amino]thiourea] | ≥ 80 | ≥ 80 |  | 
2 | C/C(=N\Oc1ccc(/C=N/NC(=O)Nc2c(C)cccc2C)cc1)c1ccc(OC(F)(F)F)cc1 [Compound 7, 1-(2,6-dimethylphenyl)-3-[[4-[1-[4-(trifluoromethoxy)phenyl]ethylidene-amino]oxyphenyl]methylene-amino]urea] | ≥ 80 | ≥ 80 | ≥ 80 | 
3 | FC(F)(F)Oc1ccc2c(c1)CC/C2=N\Oc1ccc(/C=N/NC(=S)Nc2ccccc2C(F)(F)F)cc1 [Compound 30, 1-[[4-[[5-(trifluoromethoxy)indan-1-ylidene]amino]oxyphenyl]methylene-amino]-3-[2-(trifluoromethyl)phenyl]thiourea] |  | ≥ 80 |  | 
4 | C/C(=N\Nc1ccc(/C=N/NC(=O)Nc2c(C)cccc2C)cc1)c1ccc(C(F)(F)F)cc1 [Compound 21, 1-(2,6-dimethylphenyl)-3-[(E)-[4-[(2E)-2-[1-[4-(trifluoromethyl)phenyl]ethylidene] hydrazino]phenyl]methyleneamino] urea] | ≥ 80 | ≥ 80 | ≥ 80 | 
5 | C/C(=N\Nc1ccc(/C=N/NC(=O)Nc2ccccc2C(C)C)cc1)c1cccc(OC(F)(F)F)c1 [Compound 13, 1-(2-isopropylphenyl)-3-[[4-[2-[1-[3-(trifluoromethoxy)phenyl]ethylidene] hydrazino]phenyl]methyleneamino] urea] |  | ≥ 80 |  | 
6 | C/C(=N\Nc1ccc(/C=N/NC(=S)Nc2ccccc2C(C)C)cc1)c1cccc(OC(F)(F)F)c1 [Compound 14, 1-(2-isopropylphenyl)-3-[[4-[2-[1-[3-(trifluoromethoxy)phenyl]ethylidene] hydrazino]phenyl]methyleneamino] thiourea] | ≥ 80 | ≥ 80 |  | 
7 | C/C(=N\Nc1ccc(/C=N/NC(=O)Nc2c(C)cccc2C)cc1)c1cccc(OC(F)(F)F)c1 [Compound 15, 1-(2,6-dimethylphenyl)-3-[[4-[2-[1-[3-(trifluoromethoxy)phenyl]ethylidene]hydrazino]phenyl]methylene-amino]urea] | ≥ 80 |  |  | 
8 | C/C(=N\Oc1ccc(/C=N/OC(=O)Nc2c(C)cccc2C)cc1)c1ccc(OC(F)(F)F)cc1 [Compound 2, [[4-[1-[4-(trifluoromethoxy)phenyl]ethylidene-amino]oxyphenyl]methyleneamino] N-(2,6-dimethylphenyl) carbamate] |  |  |  | percent control (mortality or growth inhibition) at 200 ppm [1]: ≥ 80%; percent control (mortality or growth inhibition) at 200 ppm [2]: ≥ 80%; mortality at 200 ppm [3]: ≥ 80%
9 | C/C(=N\Nc1ccc(/C=N/NC(=S)Nc2c(C)cccc2C)cc1)c1ccc(OC(F)(F)F)cc1 [Compound 3, 1-(2,6-dimethylphenyl)-3-[[4-[2-[1-[4-(trifluoromethoxy)phenyl]ethylidene] hydrazino]phenyl]methyleneamino] thiourea] | ≥ 80 | ≥ 80 | ≥ 80 | 
10 | Cc1cccc(C)c1NC(=S)N/N=C/c1ccc(O/N=C2\CCc3cc(OC(F)(F)F)ccc32)cc1 [Compound 9, 1-(2,6-dimethylphenyl)-3-[[4-[[5-(trifluoromethoxy)indan-1-ylidene]amino]oxyphenyl]methylene-amino]thiourea] | ≥ 80 | ≥ 80 | ≥ 80 | 
11 | C/C(=N\Oc1ccc(/C=N/NC(=O)Nc2ccccc2C(C)C)cc1)c1ccc(OC(F)(F)F)cc1 [Compound 6, 1-(2-isopropylphenyl)-3-[[4-[1-[4-(trifluoromethoxy)phenyl]ethylidene-amino]oxyphenyl]methylene-amino]urea] | ≥ 80 | ≥ 80 |  | 
12 | C/C(=N\Nc1ccc(/C=N/NC(=O)Nc2c(C)cccc2C)cc1)c1ccc(OC(F)F)cc1 [Compound 29, 1-[[4-[2-[1-[4-(difluoromethoxy)phenyl]ethylidene] hydrazino]phenyl]methyleneamino]-3-(2,6-dimethylphenyl)urea] | ≥ 80 |  | ≥ 80 | 
13 | CC(C)c1ccccc1NC(=O)N/N=C/c1ccc(O/N=C2\CCc3cc(OC(F)(F)F)ccc32)cc1 [Compound 4, 1-(2-isopropylphenyl)-3-[[4-[[5-(trifluoromethoxy)indan-1-ylidene]amino]oxyphenyl]methylene-amino]urea] | ≥ 80 | ≥ 80 | ≥ 80 | 
14 | C/C(=N\Oc1ccc(/C=N/NC(=S)Nc2ccccc2C(C)C)cc1)c1ccc(OC(F)(F)F)cc1 [Compound 8, 1-(2-isopropylphenyl)-3-[[4-[1-[4-(trifluoromethoxy)phenyl]ethylidene-amino]oxyphenyl]methylene-amino]thiourea] | ≥ 80 | ≥ 80 |  | 
15 | C/C(=N\Nc1ccc(/C=N/NC(=S)Nc2c(C)cccc2C)cc1)c1ccccc1OC(F)(F)F [Compound 18, 1-(2,6-dimethylphenyl)-3-[[4-[2-[1-[2-(trifluoromethoxy)phenyl]ethylidene] hydrazino]phenyl]methylene-amino]thiourea] | ≥ 80 |  |  | 
16 | C/C(=N\Oc1ccc(/C=N/NC(=S)Nc2c(C)cccc2C)cc1)c1ccc(OC(F)(F)F)cc1 [Compound 10, 1-(2,6-dimethylphenyl)-3-[[4-[1-[4-(trifluoromethoxy)phenyl]ethylidene-amino]oxyphenyl]methylene-amino]thiourea] | ≥ 80 | ≥ 80 | ≥ 80 | 
17 | Cc1cccc(C)c1NC(=S)N/N=C/c1ccc(N/N=C2\CCc3cc(OC(F)(F)F)ccc32)cc1 [Compound 11, 1-(2,6-dimethylphenyl)-3-[[4-[2-[5-(trifluoromethoxy)indan-1-ylidene]hydrazino]phenyl]methylene-amino]thiourea] | ≥ 80 | ≥ 80 | ≥ 80 | 
18 | C/C(=N\Nc1ccc(/C=N/NC(=S)Nc2ccccc2C(C)C)cc1)c1ccc(C(F)(F)F)cc1 [Compound 20, 1-(2-isopropylphenyl)-3-[(E)-[4-[(2E)-2-[1-[4-(trifluoromethyl)phenyl]ethylidene] hydrazino]phenyl]methyleneamino] thiourea] | ≥ 80 | ≥ 80 | ≥ 80 | 
19 | C/C(=N\Nc1ccc(/C=N/OC(=O)Nc2c(C)cccc2C)cc1)c1ccc(C(F)(F)F)cc1 [Compound 12, [[4-[2-[1-[4-(trifluoromethyl)phenyl]ethylidene] hydrazino]phenyl]methyleneamino] N-(2,6-dimethylphenyl)carbamate] |  |  |  | percent control (mortality or growth inhibition) at 200 ppm [2]: ≥ 80%
20 | CC/C(=N\Nc1ccc(/C=N/NC(=O)Nc2ccccc2C(C)C)cc1)c1ccc(C(F)(F)F)cc1 [Compound 25, 1-(2-isopropylphenyl)-3-[(E)-[4-[(2E)-2-[1-[4-(trifluoromethyl)phenyl]propylidene] hydrazino]phenyl]methyleneamino] urea] | ≥ 80 | ≥ 80 |  | 
21 | C/C(=N\Oc1ccc(/C=N/NC(=S)Nc2ccccc2C(F)(F)F)cc1)c1ccc(OC(F)(F)F)cc1 [Compound 31, 1-[[4-[1-[4-(trifluoromethoxy)phenyl]ethylidene-amino]oxyphenyl]methylene-amino]-3-[2-(trifluoromethyl)phenyl]thiourea] |  | ≥ 80 |  | 
22 | C/C(=N\Nc1ccc(/C=N/NC(=S)Nc2ccccc2C(C)C)cc1)c1ccccc1OC(F)(F)F [Compound 23, 1-(2-isopropylphenyl)-3-[(E)-[4-[(2E)-2-[1-[2-(trifluoromethoxy)phenyl]ethylidene] hydrazino]phenyl]methylene-amino]thiourea] | ≥ 80 |  |  | 
23 | C/C(=N\Nc1ccc(/C=N/NC(=O)Nc2ccccc2C(C)C)cc1)c1ccc(C(F)(F)F)cc1 [Compound 19, 1-(2-isopropylphenyl)-3-[(E)-[4-[(2E)-2-[1-[4-(trifluoromethyl)phenyl]ethylidene] hydrazino]phenyl]methyleneamino] urea] | ≥ 80 | ≥ 80 |  | 
